In PubChem BioAssay AID1919005 (Molecular Pharmacology Branch, DTP, NCI, 2023):
Where “and” joins values, the source holds several entries; their conditions need not be identical. Identical values can stand only once. Values belong to the compound of their own block, whether it stands above or below them.

System: 855422-203-R-J1-PDC complex spheroid growth
Assay: Anticancer human tumor 855422-203-R-J1-PDC patient-derived bladder carcinoma cell line growth inhibition [AhR]
Settings: for viability, T/C: stronger effect = lower value
In short: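 Spheroids combined tumor cells with HUVEC endothelial cells and human MSCs as stroma. AhR antagonists were paired with standard or investigational drugs, each dosed in half-log steps down from near clinical Cmax, or from 10 microM where Cmax was unknown.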

[1] = curve of first compound, second compound 0.1 µM
[2] = curve of first compound, second compound 0.316 µM
[3] = curve of first compound, second compound 1 µM
[4] = curve of first compound, second compound 3.16 µM
[5] = curve of first compound, second compound 10 µM
[6] = second compound 0.1 µM, first compound 0.0316 µM
[7] = second compound 0.1 µM, first compound 0.1 µM
[8] = second compound 0.1 µM, first compound 0.316 µM
[9] = second compound 0.1 µM, first compound 1 µM
[10] = second compound 0.1 µM, first compound 3.16 µM
[11] = second compound 0.1 µM, first compound 10 µM
[12] = second compound 0.316 µM, first compound 0.0316 µM
[13] = second compound 0.316 µM, first compound 0.1 µM
[14] = second compound 0.316 µM, first compound 0.316 µM
[15] = second compound 0.316 µM, first compound 1 µM
[16] = second compound 0.316 µM, first compound 3.16 µM
[17] = second compound 0.316 µM, first compound 10 µM
[18] = second compound 1 µM, first compound 0.0316 µM
[19] = second compound 1 µM, first compound 0.1 µM
[20] = second compound 1 µM, first compound 0.316 µM
[21] = second compound 1 µM, first compound 1 µM
[22] = second compound 1 µM, first compound 3.16 µM
[23] = second compound 1 µM, first compound 10 µM
[24] = second compound 3.16 µM, first compound 0.0316 µM
[25] = second compound 3.16 µM, first compound 0.1 µM
[26] = second compound 3.16 µM, first compound 0.316 µM
[27] = second compound 3.16 µM, first compound 1 µM
[28] = second compound 3.16 µM, first compound 3.16 µM
[29] = second compound 3.16 µM, first compound 10 µM
[30] = second compound 10 µM, first compound 0.0316 µM
[31] = second compound 10 µM, first compound 0.1 µM
[32] = second compound 10 µM, first compound 0.316 µM
[33] = second compound 10 µM, first compound 1 µM
[34] = second compound 10 µM, first compound 3.16 µM
[35] = second compound 10 µM, first compound 10 µM
[36] = second compound 0.1 µM, first compound 0.00316 µM
[37] = second compound 0.1 µM, first compound 0.01 µM
[38] = second compound 0.316 µM, first compound 0.00316 µM
[39] = second compound 0.316 µM, first compound 0.01 µM
[40] = second compound 1 µM, first compound 0.00316 µM
[41] = second compound 1 µM, first compound 0.01 µM
[42] = second compound 3.16 µM, first compound 0.00316 µM
[43] = second compound 3.16 µM, first compound 0.01 µM
[44] = second compound 10 µM, first compound 0.00316 µM
[45] = second compound 10 µM, first compound 0.01 µM
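Also: spheroids exposed to agents for seven days before readout.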
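For viability, T/C in this document: percent of DMSO vehicle control luminescence viability.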

SMILES: Nc1ccn(C2OC(CO)C(O)C2(F)F)c(=O)n1 (configuration not stated) + Cc1cncc(-c2nc(NCCc3c[nH]c4ccccc34)c3ncn(C(C)C)c3n2)c1
IC50 [1]: 48.3 nM | IC50 [2]: 46.3 nM | IC50 [3]: 42.5 nM | IC50 [4]: 59.5 nM | IC50 [5]: < 31.6 nM | viability, T/C [6]: 65.8% | viability, T/C [7]: 22.5% | viability, T/C [8]: 15.1% | viability, T/C [9]: 12.1% | viability, T/C [10]: 10.7% | viability, T/C [11]: 7.08% | viability, T/C [12]: 61.6% | viability, T/C [13]: 26.9% | viability, T/C [14]: 12.9% | viability, T/C [15]: 12.8% | viability, T/C [16]: 10.2% | viability, T/C [17]: 7.37% | viability, T/C [18]: 59.6% | viability, T/C [19]: 22.8% | viability, T/C [20]: 13.5% | viability, T/C [21]: 9.62% | viability, T/C [22]: 10.7% | viability, T/C [23]: 8.49% | viability, T/C [24]: 65.2% | viability, T/C [25]: 37.5% | viability, T/C [26]: 16.2% | viability, T/C [27]: 8.68% | viability, T/C [28]: 11.6% | viability, T/C [29]: 9.18% | viability, T/C [30]: 6.33% | viability, T/C [31]: 1.93% | viability, T/C [32]: 1.21% | viability, T/C [33]: 0.96% | viability, T/C [34]: 2.26% | viability, T/C [35]: 2.09%

SMILES: COc1ccc([C@@H](O)c2cc(-c3ncnc4cc(N5CCOCC5)ccc34)c(F)cc2Cl)nn1
viability, T/C (compound 0.0316 µM): 115% and 108% (2×) | viability, T/C (compound 0.1 µM): 97.6% and 101% and 89.4% | viability, T/C (compound 0.316 µM): 102% and 105% and 88.9% | viability, T/C (compound 1 µM): 89.7% and 98.2% and 82% | viability, T/C (compound 3.16 µM): 79% and 89.1% and 76.9% | viability, T/C (compound 10 µM): 52.3% and 71.5% and 57.8% | IC50 (curve of compound): > 10000 nM

SMILES: COc1ccc([C@@H](O)c2cc(-c3ncnc4cc(N5CCOCC5)ccc34)c(F)cc2Cl)nn1 + CC(CO)NC(=O)c1cc(-c2ccc(Cl)cc2)nn(-c2cnn(C)c2)c1=O
IC50 [1]: > 10000 nM | IC50 [2]: > 10000 nM | IC50 [3]: > 10000 nM | IC50 [4]: > 10000 nM | IC50 [5]: > 10000 nM | viability, T/C [6]: 94.1% | viability, T/C [7]: 85.3% | viability, T/C [8]: 84.8% | viability, T/C [9]: 86.3% | viability, T/C [10]: 74.7% | viability, T/C [11]: 58.4% | viability, T/C [12]: 96.4% | viability, T/C [13]: 96.6% | viability, T/C [14]: 86% | viability, T/C [15]: 74.5% | viability, T/C [16]: 74.6% | viability, T/C [17]: 54.6% | viability, T/C [18]: 85.3% | viability, T/C [19]: 90.6% | viability, T/C [20]: 92.3% | viability, T/C [21]: 86.9% | viability, T/C [22]: 72.7% | viability, T/C [23]: 55.4% | viability, T/C [24]: 91.5% | viability, T/C [25]: 88.5% | viability, T/C [26]: 98.9% | viability, T/C [27]: 78.5% | viability, T/C [28]: 69.6% | viability, T/C [29]: 54% | viability, T/C [30]: 93.5% | viability, T/C [31]: 103% | viability, T/C [32]: 82% | viability, T/C [33]: 84.2% | viability, T/C [34]: 71% | viability, T/C [35]: 54.4%

Further compounds by falling IC50 [1], results first:

IC50 [1]: 444 nM | IC50 [2]: 347 nM | IC50 [3]: 298 nM | IC50 [4]: 237 nM | IC50 [5]: 178 nM
SMILES: CC1COCCN1c1cc(-c2ccnn2C)c2ccnc(-c3ccn[nH]3)c2n1 (configuration not stated) + CC(CO)NC(=O)c1cc(-c2ccc(Cl)cc2)nn(-c2cnn(C)c2)c1=O
viability, T/C [36]: 94.2% | viability, T/C [37]: 85% | viability, T/C [6]: 93.2% | viability, T/C [7]: 94.2% | viability, T/C [8]: 61.4% | viability, T/C [9]: 22.8% | viability, T/C [38]: 94.5% | viability, T/C [39]: 87.4% | viability, T/C [12]: 78.5% | viability, T/C [13]: 95.3% | viability, T/C [14]: 52.5% | viability, T/C [15]: 21.1% | viability, T/C [40]: 97.3% | viability, T/C [41]: 89.4% | viability, T/C [18]: 88% | viability, T/C [19]: 84.9% | viability, T/C [20]: 47.9% | viability, T/C [21]: 17.6% | viability, T/C [42]: 85.7% | viability, T/C [43]: 91.8% | viability, T/C [24]: 90% | viability, T/C [25]: 76.5% | viability, T/C [26]: 41.2% | viability, T/C [27]: 17.7% | viability, T/C [44]: 85.5% | viability, T/C [45]: 94.7% | viability, T/C [30]: 78.5% | viability, T/C [31]: 68.9% | viability, T/C [32]: 32.2% | viability, T/C [33]: 19.8%

IC50 [1]: 60.2 nM | IC50 [2]: 58.6 nM | IC50 [3]: 56.4 nM | IC50 [4]: 54.7 nM | IC50 [5]: 45.1 nM
SMILES: CC[C@@]1(O)C(=O)OCc2c1cc1n(c2=O)Cc2cc3c(CN(C)C)c(O)ccc3nc2-1 + CC(CO)NC(=O)c1cc(-c2ccc(Cl)cc2)nn(-c2cnn(C)c2)c1=O
viability, T/C (second compound 0.1 µM, first compound 0.000316 µM): 96.7% | viability, T/C (second compound 0.1 µM, first compound 0.001 µM): 97.5% | viability, T/C [36]: 93.7% | viability, T/C [37]: 102% | viability, T/C [6]: 86.5% | viability, T/C [7]: 20.9% | viability, T/C (second compound 0.316 µM, first compound 0.000316 µM): 106% | viability, T/C (second compound 0.316 µM, first compound 0.001 µM): 100% | viability, T/C [38]: 98.8% | viability, T/C [39]: 98.9% | viability, T/C [12]: 87.3% | viability, T/C [13]: 17.9% | viability, T/C (second compound 1 µM, first compound 0.000316 µM): 104% | viability, T/C (second compound 1 µM, first compound 0.001 µM): 97.8% | viability, T/C [40]: 105% | viability, T/C [41]: 104% | viability, T/C [18]: 84.9% | viability, T/C [19]: 15.5% | viability, T/C (second compound 3.16 µM, first compound 0.000316 µM): 99.4% | viability, T/C (second compound 3.16 µM, first compound 0.001 µM): 96.6% | viability, T/C [42]: 93% | viability, T/C [43]: 95.5% | viability, T/C [24]: 83.5% | viability, T/C [25]: 13% | viability, T/C (second compound 10 µM, first compound 0.000316 µM): 86.2% | viability, T/C (second compound 10 µM, first compound 0.001 µM): 100% | viability, T/C [44]: 102% | viability, T/C [45]: 96.3% | viability, T/C [30]: 65.8% | viability, T/C [31]: 14.8%

IC50 [1]: 18.1 nM | IC50 [2]: 15.5 nM | IC50 [3]: 11.5 nM | IC50 [4]: 7.01 nM | IC50 [5]: 5.43 nM
SMILES: CCc1c2c(nc3ccc(O)cc13)-c1cc3c(c(=O)n1C2)COC(=O)[C@]3(O)CC + Cc1ccccc1N=Nc1ccc(NC(=O)c2ccnn2C)c(C)c1
viability, T/C (second compound 0.1 µM, first compound 0.000949 µM): 107% | viability, T/C (second compound 0.1 µM, first compound 0.003 µM): 98.3% | viability, T/C (second compound 0.1 µM, first compound 0.00949 µM): 75.5% | viability, T/C (second compound 0.1 µM, first compound 0.03 µM): 29.6% | viability, T/C (second compound 0.1 µM, first compound 0.0949 µM): 17.4% | viability, T/C (second compound 0.1 µM, first compound 0.3 µM): 11.5% | viability, T/C (second compound 0.316 µM, first compound 0.000949 µM): 98.3% | viability, T/C (second compound 0.316 µM, first compound 0.003 µM): 93.7% | viability, T/C (second compound 0.316 µM, first compound 0.00949 µM): 68.1% | viability, T/C (second compound 0.316 µM, first compound 0.03 µM): 25.2% | viability, T/C (second compound 0.316 µM, first compound 0.0949 µM): 14.6% | viability, T/C (second compound 0.316 µM, first compound 0.3 µM): 9.09% | viability, T/C (second compound 1 µM, first compound 0.000949 µM): 102% | viability, T/C (second compound 1 µM, first compound 0.003 µM): 95.3% | viability, T/C (second compound 1 µM, first compound 0.00949 µM): 55.5% | viability, T/C (second compound 1 µM, first compound 0.03 µM): 20.7% | viability, T/C (second compound 1 µM, first compound 0.0949 µM): 14% | viability, T/C (second compound 1 µM, first compound 0.3 µM): 9.24% | viability, T/C (second compound 3.16 µM, first compound 0.000949 µM): 92.3% | viability, T/C (second compound 3.16 µM, first compound 0.003 µM): 81.8% | viability, T/C (second compound 3.16 µM, first compound 0.00949 µM): 36.8% | viability, T/C (second compound 3.16 µM, first compound 0.03 µM): 21.7% | viability, T/C (second compound 3.16 µM, first compound 0.0949 µM): 13% | viability, T/C (second compound 3.16 µM, first compound 0.3 µM): 7.68% | viability, T/C (second compound 10 µM, first compound 0.000949 µM): 76.5% | viability, T/C (second compound 10 µM, first compound 0.003 µM): 73.4% | viability, T/C (second compound 10 µM, first compound 0.00949 µM): 28.1% | viability, T/C (second compound 10 µM, first compound 0.03 µM): 22% | viability, T/C (second compound 10 µM, first compound 0.0949 µM): 13.7% | viability, T/C (second compound 10 µM, first compound 0.3 µM): 9.18%
